Assay results: article PMC9732253, “Inhibition of the Phosphatidylinositol-3 Kinase Pathway Using Bimiralisib in Loss-of-Function NOTCH1-Mutant Head and Neck Cancer” (The Oncologist, 2022)

Method: All patients received 140 mg bimiralisib (PQR309) orally once daily on 2 consecutive days followed by 5 days without treatment weekly until unacceptable toxicity, tumor progression, patient request for withdrawal, investigator judgment, or death.
Radiologic tumor assessments were performed using computed tomography at baseline and every 6 weeks. Safety was continuously monitored.

Nc1cc(C(F)(F)F)c(-c2nc(N3CCOCC3)nc(N3CCOCC3)n2)cn1 [Bimiralisib, 5-(4,6-dimorpholino-1,3,5-triazin-2-yl)-4-(trifluoromethyl)pyridin-2-amine]
1 (12.5) n (%): General disorders and administration site conditions, Grade 2, patients (n = 8) | General disorders and administration site conditions, Grade 3/4, patients (n = 8) | Hemorrhage, Grade 3/4, patients (n = 8) | Hyperglycemia, Grade 1, patients (n = 8) | Hypocalcemia, Grade 2, patients (n = 8) | Hypotension, Grade 1, patients (n = 8) | Injury, poisoning and procedural complications, Grade 1, patients (n = 8) | Investigations, Grade 3/4, patients (n = 8) | Laryngeal stenosis, Grade 3/4, patients (n = 8) | Metabolism and nutrition disorders, Grade 1, patients (n = 8) | Musculoskeletal and connective tissue disorders, Grade 1, patients (n = 8) | Nausea, Grade 1, patients (n = 8) | Neck pain, Grade 1, patients (n = 8) | Nervous system disorders, Grade 1, patients (n = 8) | Nervous system disorders, Grade 2, patients (n = 8) | Osteomyelitis acute, Grade 3/4, patients (n = 8) | Pain in jaw, Grade 1, patients (n = 8) | Platelet count decreased, Grade 1, patients (n = 8) | Presyncope, Grade 2, patients (n = 8) | Pruritus, Grade 1, patients (n = 8) | Pyrexia, Grade 1, patients (n = 8) | Renal and urinary disorders, Grade 1, patients (n = 8) | Renal and urinary disorders, Grade 3/4, patients (n = 8) | Renal injury, Grade 3/4, patients (n = 8) | Respiratory, thoracic and mediastinal disorders, Grade 1, patients (n = 8) | Seizure, Grade 1, patients (n = 8) | Sunburn, Grade 1, patients (n = 8) | Tinnitus, Grade 1, patients (n = 8) | Urinary tract discomfort, Grade 1, patients (n = 8) | Vascular disorders, Grade 1, patients (n = 8) | Vascular disorders, Grade 3/4, patients (n = 8)
3 (37.5) n (%): Infections and infestations, Grade 3/4, patients (n = 8) | Investigations, Grade 1, patients (n = 8) | Respiratory, thoracic and mediastinal disorders, Grade 3/4, patients (n = 8)
28 days: Time to normalization of grade 3 elevated alanine and aspartate aminotransferase after therapy discontinuation (patient 4, related to treatment)
1: General disorders and administration site conditions, Grade 2, total number of events (n = 8) | General disorders and administration site conditions, Grade 3/4, total number of events (n = 8) | Hemorrhage, Grade 3/4, total number of events (n = 8) | Hyperglycemia, Grade 1, total number of events (n = 8) | Hypocalcemia, Grade 2, total number of events (n = 8) | Hypotension, Grade 1, total number of events (n = 8) | Injury, poisoning and procedural complications, Grade 1, total number of events (n = 8) | Laryngeal stenosis, Grade 3/4, total number of events (n = 8) | Metabolism and nutrition disorders, Grade 1, total number of events (n = 8) | Nausea, Grade 1, total number of events (n = 8) | Neck pain, Grade 1, total number of events (n = 8) | Nervous system disorders, Grade 2, total number of events (n = 8) | Osteomyelitis acute, Grade 3/4, total number of events (n = 8) | Pain in jaw, Grade 1, total number of events (n = 8) | Platelet count decreased, Grade 1, total number of events (n = 8) | Presyncope, Grade 2, total number of events (n = 8) | Pruritus, Grade 1, total number of events (n = 8) | Pyrexia, Grade 1, total number of events (n = 8) | Renal and urinary disorders, Grade 1, total number of events (n = 8) | Renal and urinary disorders, Grade 3/4, total number of events (n = 8) | Renal injury, Grade 3/4, total number of events (n = 8) | Respiratory, thoracic and mediastinal disorders, Grade 1, total number of events (n = 8) | Seizure, Grade 1, total number of events (n = 8) | Sepsis, Grade 3/4, total number of events (n = 8) | Skin infection, Grade 3/4, total number of events (n = 8) | Sunburn, Grade 1, total number of events (n = 8) | Tinnitus, Grade 1, total number of events (n = 8) | Urinary tract discomfort, Grade 1, total number of events (n = 8) | Vascular disorders, Grade 1, total number of events (n = 8) | Vascular disorders, Grade 3/4, total number of events (n = 8)
0 n (%): Hemorrhage, Grade 1, patients (n = 8) | Hemorrhage, Grade 2, patients (n = 8) | Hyperglycemia, Grade 2, patients (n = 8) | Hypocalcemia, Grade 1, patients (n = 8) | Hypocalcemia, Grade 3/4, patients (n = 8) | Hypotension, Grade 2, patients (n = 8) | Hypotension, Grade 3/4, patients (n = 8) | Injury, poisoning and procedural complications, Grade 2, patients (n = 8) | Injury, poisoning and procedural complications, Grade 3/4, patients (n = 8) | Investigations, Grade 2, patients (n = 8) | Laryngeal stenosis, Grade 1, patients (n = 8) | Laryngeal stenosis, Grade 2, patients (n = 8) | Musculoskeletal and connective tissue disorders, Grade 2, patients (n = 8) | Musculoskeletal and connective tissue disorders, Grade 3/4, patients (n = 8) | Nausea, Grade 3/4, patients (n = 8) | Neck pain, Grade 2, patients (n = 8) | Neck pain, Grade 3/4, patients (n = 8) | Nervous system disorders, Grade 3/4, patients (n = 8) | Osteomyelitis acute, Grade 1, patients (n = 8) | Osteomyelitis acute, Grade 2, patients (n = 8) | Pain in jaw, Grade 2, patients (n = 8) | Pain in jaw, Grade 3/4, patients (n = 8) | Platelet count decreased, Grade 2, patients (n = 8) | Platelet count decreased, Grade 3/4, patients (n = 8) | Pneumonia aspiration, Grade 1, patients (n = 8) | Pneumonia aspiration, Grade 2, patients (n = 8) | Presyncope, Grade 1, patients (n = 8) | Presyncope, Grade 3/4, patients (n = 8) | Pruritus, Grade 2, patients (n = 8) | Pruritus, Grade 3/4, patients (n = 8) | Psychiatric disorders, Grade 2, patients (n = 8) | Psychiatric disorders, Grade 3/4, patients (n = 8) | Pyrexia, Grade 2, patients (n = 8) | Pyrexia, Grade 3/4, patients (n = 8) | Rash, Grade 2, patients (n = 8) | Rash, Grade 3/4, patients (n = 8) | Renal and urinary disorders, Grade 2, patients (n = 8) | Renal injury, Grade 1, patients (n = 8) | Renal injury, Grade 2, patients (n = 8) | Respiratory, thoracic and mediastinal disorders, Grade 2, patients (n = 8) | Seizure, Grade 2, patients (n = 8) | Seizure, Grade 3/4, patients (n = 8) | Skin and subcutaneous tissue disorders, Grade 2, patients (n = 8) | Skin and subcutaneous tissue disorders, Grade 3/4, patients (n = 8) | Sunburn, Grade 2, patients (n = 8) | Sunburn, Grade 3/4, patients (n = 8) | Tinnitus, Grade 2, patients (n = 8) | Tinnitus, Grade 3/4, patients (n = 8) | Urinary tract discomfort, Grade 2, patients (n = 8) | Urinary tract discomfort, Grade 3/4, patients (n = 8) | Vascular disorders, Grade 2, patients (n = 8) | Vomiting, Grade 1, patients (n = 8) | Vomiting, Grade 3/4, patients (n = 8)
8 patients: Patients with at least one treatment-emergent AE (of 8)
0: Hemorrhage, Grade 1, total number of events (n = 8) | Hemorrhage, Grade 2, total number of events (n = 8) | Hyperglycemia, Grade 2, total number of events (n = 8) | Hypocalcemia, Grade 1, total number of events (n = 8) | Hypocalcemia, Grade 3/4, total number of events (n = 8) | Hypotension, Grade 2, total number of events (n = 8) | Hypotension, Grade 3/4, total number of events (n = 8) | Injury, poisoning and procedural complications, Grade 2, total number of events (n = 8) | Injury, poisoning and procedural complications, Grade 3/4, total number of events (n = 8) | Investigations, Grade 2, total number of events (n = 8) | Laryngeal stenosis, Grade 1, total number of events (n = 8) | Laryngeal stenosis, Grade 2, total number of events (n = 8) | Musculoskeletal and connective tissue disorders, Grade 2, total number of events (n = 8) | Musculoskeletal and connective tissue disorders, Grade 3/4, total number of events (n = 8) | Nausea, Grade 3/4, total number of events (n = 8) | Neck pain, Grade 2, total number of events (n = 8) | Neck pain, Grade 3/4, total number of events (n = 8) | Nervous system disorders, Grade 3/4, total number of events (n = 8) | Osteomyelitis acute, Grade 1, total number of events (n = 8) | Osteomyelitis acute, Grade 2, total number of events (n = 8) | Pain in jaw, Grade 2, total number of events (n = 8) | Pain in jaw, Grade 3/4, total number of events (n = 8) | Platelet count decreased, Grade 2, total number of events (n = 8) | Platelet count decreased, Grade 3/4, total number of events (n = 8) | Pneumonia aspiration, Grade 1, total number of events (n = 8) | Pneumonia aspiration, Grade 2, total number of events (n = 8) | Presyncope, Grade 1, total number of events (n = 8) | Presyncope, Grade 3/4, total number of events (n = 8) | Pruritus, Grade 2, total number of events (n = 8) | Pruritus, Grade 3/4, total number of events (n = 8) | Psychiatric disorders, Grade 2, total number of events (n = 8) | Psychiatric disorders, Grade 3/4, total number of events (n = 8) | Pyrexia, Grade 2, total number of events (n = 8) | Pyrexia, Grade 3/4, total number of events (n = 8) | Rash, Grade 2, total number of events (n = 8) | Rash, Grade 3/4, total number of events (n = 8) | Renal and urinary disorders, Grade 2, total number of events (n = 8) | Renal injury, Grade 1, total number of events (n = 8) | Renal injury, Grade 2, total number of events (n = 8) | Respiratory, thoracic and mediastinal disorders, Grade 2, total number of events (n = 8) | Seizure, Grade 2, total number of events (n = 8) | Seizure, Grade 3/4, total number of events (n = 8) | Skin and subcutaneous tissue disorders, Grade 2, total number of events (n = 8) | Skin and subcutaneous tissue disorders, Grade 3/4, total number of events (n = 8) | Sunburn, Grade 2, total number of events (n = 8) | Sunburn, Grade 3/4, total number of events (n = 8) | Tinnitus, Grade 2, total number of events (n = 8) | Tinnitus, Grade 3/4, total number of events (n = 8) | Urinary tract discomfort, Grade 2, total number of events (n = 8) | Urinary tract discomfort, Grade 3/4, total number of events (n = 8) | Vascular disorders, Grade 2, total number of events (n = 8) | Vomiting, Grade 1, total number of events (n = 8) | Vomiting, Grade 3/4, total number of events (n = 8) | Wound infection, Grade 3/4, total number of events (n = 8)
3: Investigations, Grade 1, total number of events (n = 8) | Metabolism and nutrition disorders, Grade 2, total number of events (n = 8)
2 (25.0) n (%): Hyperglycemia, Grade 3/4, patients (n = 8) | Metabolism and nutrition disorders, Grade 2, patients (n = 8) | Metabolism and nutrition disorders, Grade 3/4, patients (n = 8) | Nausea, Grade 2, patients (n = 8) | Pneumonia aspiration, Grade 3/4, patients (n = 8) | Psychiatric disorders, Grade 1, patients (n = 8) | Rash, Grade 1, patients (n = 8) | Skin and subcutaneous tissue disorders, Grade 1, patients (n = 8) | Vomiting, Grade 2, patients (n = 8)
6: General disorders and administration site conditions, Grade 1, total number of events (n = 8)
10: Nonfatal SAEs not related to bimiralisib (on-treatment period)
4: Respiratory, thoracic and mediastinal disorders, Grade 3/4, total number of events (n = 8) | Skin and subcutaneous tissue disorders, Grade 1, total number of events (n = 8)
2: Hyperglycemia, Grade 3/4, total number of events (n = 8) | Investigations, Grade 3/4, total number of events (n = 8) | Metabolism and nutrition disorders, Grade 3/4, total number of events (n = 8) | Musculoskeletal and connective tissue disorders, Grade 1, total number of events (n = 8) | Nausea, Grade 2, total number of events (n = 8) | Nervous system disorders, Grade 1, total number of events (n = 8) | Pneumonia aspiration, Grade 3/4, total number of events (n = 8) | Psychiatric disorders, Grade 1, total number of events (n = 8) | Rash, Grade 1, total number of events (n = 8) | Vomiting, Grade 2, total number of events (n = 8)
